Experimental data taken from ChEMBL document CHEMBL1128046, “Inhibitors of acyl-coa:cholesterol acyltransferase (ACAT). 15. sulfonylurea inhibitors with excellent hypocholesterolemic activity in vivo” (Bioorg Med Chem Lett, 1995).
The source made the active and inactive calls. The calls are words filed in the database; no cut-off is given here.

What was measured:
Rattus norvegicus [1] = assay: Hypocholesterolemic activity expressed as percent change in total cholesterol in acute cholesterol fed rats (APCC) at dose 30 mg/kg; type: functional
[2] = biological target: T1, Sterol O-acyltransferase 1 (Rattus norvegicus, UniProt O70536); assay: Inhibition of Acyl-CoA: Cholesterol Acyltransferase (ACAT) in liver microsomes of cholesterol fed rats; set-up: species or system Microsome
T1 sequence (O70536 whole entry): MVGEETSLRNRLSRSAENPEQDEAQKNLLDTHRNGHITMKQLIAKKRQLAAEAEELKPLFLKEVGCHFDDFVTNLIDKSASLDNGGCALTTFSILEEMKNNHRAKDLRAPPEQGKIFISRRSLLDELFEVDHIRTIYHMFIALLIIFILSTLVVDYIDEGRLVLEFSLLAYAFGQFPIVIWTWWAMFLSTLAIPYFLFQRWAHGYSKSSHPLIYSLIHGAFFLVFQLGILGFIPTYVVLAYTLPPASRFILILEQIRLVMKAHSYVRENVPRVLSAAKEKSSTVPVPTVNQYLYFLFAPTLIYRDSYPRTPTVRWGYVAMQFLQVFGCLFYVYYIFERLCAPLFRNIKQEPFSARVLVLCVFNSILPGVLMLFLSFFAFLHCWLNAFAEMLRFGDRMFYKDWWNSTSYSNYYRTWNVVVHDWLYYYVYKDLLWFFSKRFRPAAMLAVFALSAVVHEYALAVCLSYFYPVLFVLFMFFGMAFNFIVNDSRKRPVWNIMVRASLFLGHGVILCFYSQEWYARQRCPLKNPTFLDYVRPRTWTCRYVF

[3] = biological target: T2, Acyl-CoA:cholesterol acyltransferase (Oryctolagus cuniculus) (UniProt Q95214); assay: (§1) Compound at 5 uM concentration was tested in vitro for inhibition of Acyl-CoA: Cholesterol Acyltransferase (ACAT) in intestinal microsomes of cholesterol fed rabbits; conditions: Intestine
T2 sequence (whole entry): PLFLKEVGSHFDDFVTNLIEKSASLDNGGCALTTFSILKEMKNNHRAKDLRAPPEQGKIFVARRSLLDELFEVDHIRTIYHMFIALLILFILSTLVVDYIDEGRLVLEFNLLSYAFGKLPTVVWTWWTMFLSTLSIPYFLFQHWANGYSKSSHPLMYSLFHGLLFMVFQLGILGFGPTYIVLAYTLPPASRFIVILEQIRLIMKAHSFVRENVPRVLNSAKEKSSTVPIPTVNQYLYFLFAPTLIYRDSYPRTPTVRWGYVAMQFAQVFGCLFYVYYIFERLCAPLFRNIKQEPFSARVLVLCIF

Rattus norvegicus [4] = assay: Hypocholesterolemic activity expressed as percent change in total cholesterol in acute cholesterol fed rats (APCC) at dose 3 mg/kg; type: functional
Rattus norvegicus [5] = assay: Hypocholesterolemic activity expressed as percent change in total cholesterol in chronic cholesterol fed rats (CPCC) at dose 30 mg/kg; type: functional
[6] = biological target: T3, Sterol O-acyltransferase 1 (Rattus norvegicus) (UniProt O70536); assay: Compound at 10 uM concentration was tested in vitro for inhibition of Acyl-CoA: Cholesterol Acyltransferase (ACAT) in liver microsomes of cholesterol fed rats; conditions: Microsome
T3 sequence (whole entry): T1 sequence (O70536 whole entry)

O-acyltransferase [7] = biological target: T4, O-acyltransferase (Oryctolagus cuniculus, UniProt G1SFD9); assay: Inhibition of Acyl-CoA: Cholesterol Acyltransferase (ACAT) in intestinal microsomes of cholesterol fed rabbits; set-up: species or system Intestine
T4 sequence (G1SFD9 1-524): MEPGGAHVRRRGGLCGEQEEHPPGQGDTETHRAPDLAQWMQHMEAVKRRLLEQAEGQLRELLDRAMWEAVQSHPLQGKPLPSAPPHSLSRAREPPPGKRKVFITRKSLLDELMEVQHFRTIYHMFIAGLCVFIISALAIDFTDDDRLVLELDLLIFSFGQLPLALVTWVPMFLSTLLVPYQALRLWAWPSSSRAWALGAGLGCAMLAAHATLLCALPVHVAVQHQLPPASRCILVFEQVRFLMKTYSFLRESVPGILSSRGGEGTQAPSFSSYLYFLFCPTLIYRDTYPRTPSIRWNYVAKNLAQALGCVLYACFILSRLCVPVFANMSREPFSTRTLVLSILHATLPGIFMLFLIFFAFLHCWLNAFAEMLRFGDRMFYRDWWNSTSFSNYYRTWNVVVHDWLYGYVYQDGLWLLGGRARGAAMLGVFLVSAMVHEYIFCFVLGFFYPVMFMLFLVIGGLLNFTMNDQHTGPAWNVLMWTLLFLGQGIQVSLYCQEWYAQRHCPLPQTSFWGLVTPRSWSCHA

Rattus norvegicus [8] = assay: Hypocholesterolemic activity expressed as percent change in total cholesterol in chronic cholesterol fed rats (CPCC) at dose 3 mg/kg; type: functional
Rattus norvegicus [9] = assay: Hypocholesterolemic activity expressed as percent change in total cholesterol in acute cholesterol fed rats (APCC) at dose 30 mg/kg; NC means no change; type: functional, organism-based; set-up: dose 30 mg/kg
[10] = biological target: T1, Sterol O-acyltransferase 1; assay: (§2) Compound at 5 uM concentration was tested in vitro for inhibition of Acyl-CoA: Cholesterol Acyltransferase (ACAT) in liver microsomes of cholesterol fed rats; set-up: species or system Microsome
[11] = biological target: T3, Sterol O-acyltransferase 1 (Rattus norvegicus); assay: as §2; conditions: Microsome
Rattus norvegicus [12] = assay: Hypocholesterolemic activity expressed as percent change in total cholesterol in chronic cholesterol fed rats (CPCC) at dose 3 mg/kg; NC means no change; type: functional, organism-based; set-up: dose 3 mg/kg
O-acyltransferase [13] = biological target: T4, O-acyltransferase; assay: as §1; set-up: species or system Intestine

Compound	Change (Rattus norvegicus [1]) [%]	IC50 [2] [nM]	Change (Rattus norvegicus [4]) [%]	Change (Rattus norvegicus [5]) [%]	IC50 (O-acyltransferase [7]) [nM]	Change (Rattus norvegicus [8]) [%]	other results
CCCCCCCCS(=O)(=O)NC(=O)Nc1c(C(C)C)cccc1C(C)C	-74	22600	-31	-59	–	–	inhibition [3]: 24%
CCCCCCCCCCCCCCS(=O)(=O)NC(=O)Nc1ccc(F)cc1F	–	–	-14	–	–	–	inhibition [6]: 0%; inhibition [3]: 49%
CCCCCCCCCCCCS(=O)(=O)NC(=O)Nc1c(C(C)C)cccc1C(C)C	-63	3300	-59	-53	2330	-35	–
CCCCCCCCCCCCCCS(=O)(=O)NC(=O)Nc1c(C(C)C)cccc1C(C)C	-56	940	-60	-58	–	-46	–
CCCCCCCCCCCCCCS(=O)(=O)N(Cc1ccccc1)C(=O)Nc1c(C(C)C)cccc1C(C)C	–	–	–	–	520	–	Change (Rattus norvegicus [9]): inactive; IC50 [10]: 38000 nM
CCCCCCCCCCCCCCS(=O)(=O)NC(=O)Nc1c(OC)cc(OC)cc1OC	-47	–	-31	–	–	–	inhibition [11]: 40%
CCCCCCCCCCCCCC(C)(C)S(=O)(=O)NC(=O)Nc1c(C(C)C)cccc1C(C)C	-52	682	-55	-59	–	-26	–
CCCCCCCCCCCCCC(C)S(=O)(=O)NC(=O)Nc1c(C(C)C)cccc1C(C)C (stereo not given)	-76	830	-61	-61	–	-26	–
CCCCCCCCCCCCCC(C)(C)S(=O)(=O)NC(=O)Nc1c(OC)cc(OC)cc1OC	-76	8100	-18	–	–	-13	–
CCCCCCCCC(C)S(=O)(=O)NC(=O)Nc1c(C(C)C)cccc1C(C)C (stereo not given)	-69	1300	-32	-58	–	-46	–
CCCCCCCCCCCCCS(=O)(=O)NC(=O)Nc1c(C(C)C)cccc1C(C)C	-62	2000	-42	-69	1200	–	–
CCCCCCCCCCCCCCCCS(=O)(=O)NC(=O)Nc1c(C(C)C)cccc1C(C)C	-64	1270	-58	-10	1350	–	–
CCCCCCCCCCCCS(=O)(=O)N(C)C(=O)Nc1c(C(C)C)cccc1C(C)C	-49	675	-18	–	86	–	–
CCCCCCCCCCCCCCCCC(C)S(=O)(=O)NC(=O)Nc1c(C(C)C)cccc1C(C)C (stereo not given)	-76	1390	-58	-36	–	–	–
CCCCCCCCCCCCCCS(=O)(=O)N(C)C(=O)Nc1c(C(C)C)cccc1C(C)C	-48	8830	-20	–	–	–	inhibition [3]: 34%
CCCCCCCCCCCCCC(c1ccccc1)S(=O)(=O)NC(=O)Nc1c(C(C)C)cccc1C(C)C (stereo not given)	-72	2300	-69	-62	–	–	Change (Rattus norvegicus [12]): inactive
CCCCCCCCC(c1ccccc1)S(=O)(=O)NC(=O)Nc1c(C(C)C)cccc1C(C)C (stereo not given)	-75	9200	-62	-74	–	-48	IC50 (O-acyltransferase [13]): 1100 nM
CCCCCCCCCCS(=O)(=O)NC(=O)Nc1c(C(C)C)cccc1C(C)C	-52	13600	-40	-47	11100	–	–
CCCCCCCCCCCCCCCCC(C)S(=O)(=O)NC(=O)Nc1c(OC)cc(OC)cc1OC (stereo not given)	-53	85	-12	-18	–	–	–
CC(C)c1cccc(C(C)C)c1OC(=O)[N-]S(=O)(=O)Oc1c(C(C)C)cccc1C(C)C.[Na+]	-74	–	-59	-64	–	-64	–
